Species: Rattus norvegicus
Assay: Open TG-GATES - Regimen: Daily Repeat
Type: toxicity, organism-based, Sprague-Dawley
Parameters: regimen Daily Repeat, gender Male, age 6 weeks
Details: in vivo, po, route gavage; for APTT / Bas / Eos / Fbg / Hb / Ht / Lym / MCH / MCHC / MCV / Mono / Neu / PT / Plat / RBC / Ret / WBC: tissue Blood; for KIDNEY_L / KIDNEY_R / KIDNEY_TOTAL: tissue Kidney; for LIVER: tissue Liver; for A/G / ALP / ALT / AST / BUN / CRE / Ca / Cl / DBIL / GLC / IP / K / LDH / Na / PL / RALB / TBIL / TC / TG / TP / gamma-GTP: tissue Plasma
[1] = 0 mg/kg, 72 h, dose level Control, time 3 day
[2] = 0 mg/kg, […], dose level Control, time 7 day
[3] = 0 mg/kg, […], dose level Control, time 14 day
[4] = 0 mg/kg, […], dose level Control, time 28 day
[5] = 10 mg/kg, 72 h, dose level Low, time 3 day
[6] = 10 mg/kg, […], dose level Low, time 7 day
[7] = 10 mg/kg, […], dose level Low, time 14 day
[8] = 10 mg/kg, […], dose level Low, time 28 day

## O=C1CN(/N=C/c2ccc([N+](=O)[O-])o2)C(=O)N1 [NITROFURANTOIN]
[1]
  TERMINAL_BW: 244.1 g
  APTT: 19.2 s
  Bas: 0%
  Eos: 1%
  Fbg: 219 mg/dL
  Hb: 13.7 g/dL
  Ht: 39.1%
  Lym: 80.6%
  MCH: 22 pg
  MCHC: 35.1%
  MCV: 62.8 fL
  Mono: 3%
  Neu: 13.8%
  PT: 12.3 s
  Plat: 134.3 x10_4/uL
  RBC: 622.8 x10_4/ul
  Ret: 6.3%
  WBC: 116.2 x10_2/uL
  KIDNEY_L: 1 g
  KIDNEY_R: 1.1 g
  KIDNEY_TOTAL: 2.1 g
  LIVER: 12.1 g
  A/G: 1.5
  ALP: 885 IU/L
  ALT: 35.6 IU/L
  AST: 68.6 IU/L
  BUN: 16.2 mg/dL
  CRE: 0.4 mg/dL
  Ca: 10.8 mg/dL
  Cl: 101 meq/L
  DBIL: 0.1 mg/dL
  GLC: 233.2 mg/dL
  IP: 7.2 mg/dL
  K: 3.7 meq/L
  LDH: 200.8 IU/L
  Na: 140 meq/L
  PL: 166.6 mg/dL
  RALB: 3.4 g/dL
  TBIL: 0.2 mg/dL
  TC: 77.6 mg/dL
  TG: 139.8 mg/dL
  TP: 5.6 g/dL
  gamma-GTP: 1 IU/L
[2]
  TERMINAL_BW: 274 g
  APTT: 19.9 s
  Bas: 0%
  Eos: 0.8%
  Fbg: 227.8 mg/dL
  Hb: 14.1 g/dL
  Ht: 40.2%
  Lym: 80.6%
  MCH: 21.5 pg
  MCHC: 35.2%
  MCV: 61.2 fL
  Mono: 2.6%
  Neu: 14.6%
  PT: 12.5 s
  Plat: 135 x10_4/uL
  RBC: 657.2 x10_4/ul
  Ret: 5.4%
  WBC: 123.7 x10_2/uL
  KIDNEY_L: 1.2 g
  KIDNEY_R: 1.2 g
  KIDNEY_TOTAL: 2.4 g
  LIVER: 13 g
  A/G: 1.5
  ALP: 943.4 IU/L
  ALT: 32.8 IU/L
  AST: 63.2 IU/L
  BUN: 16.4 mg/dL
  CRE: 0.4 mg/dL
  Ca: 10.8 mg/dL
  Cl: 101 meq/L
  DBIL: 0.1 mg/dL
  GLC: 192.8 mg/dL
  IP: 6.9 mg/dL
  K: 4.4 meq/L
  LDH: 238.6 IU/L
  Na: 139.8 meq/L
  PL: 166.8 mg/dL
  RALB: 3.5 g/dL
  TBIL: 0.2 mg/dL
  TC: 79.4 mg/dL
  TG: 141 mg/dL
  TP: 5.8 g/dL
  gamma-GTP: 0.6 IU/L
[3]
  TERMINAL_BW: 331.5 g
  APTT: 20.1 s
  Bas: 0%
  Eos: 0.6%
  Fbg: 227.4 mg/dL
  Hb: 14.6 g/dL
  Ht: 41.5%
  Lym: 77.4%
  MCH: 20.3 pg
  MCHC: 35.1%
  MCV: 57.7 fL
  Mono: 1.8%
  Neu: 18.8%
  PT: 12.3 s
  Plat: 117.4 x10_4/uL
  RBC: 718.6 x10_4/ul
  Ret: 4.4%
  WBC: 127.2 x10_2/uL
  KIDNEY_L: 1.3 g
  KIDNEY_R: 1.3 g
  KIDNEY_TOTAL: 2.6 g
  LIVER: 14.5 g
  A/G: 1.4
  ALP: 818 IU/L
  ALT: 34.4 IU/L
  AST: 60.6 IU/L
  BUN: 16.6 mg/dL
  CRE: 0.4 mg/dL
  Ca: 10.4 mg/dL
  Cl: 101.6 meq/L
  DBIL: 0.1 mg/dL
  GLC: 218.2 mg/dL
  IP: 6.7 mg/dL
  K: 3.7 meq/L
  LDH: 189.6 IU/L
  Na: 140 meq/L
  PL: 153.2 mg/dL
  RALB: 3.4 g/dL
  TBIL: 0.2 mg/dL
  TC: 66.4 mg/dL
  TG: 148.8 mg/dL
  TP: 5.9 g/dL
  gamma-GTP: 1 IU/L
[4]
  TERMINAL_BW: 422.1 g
  APTT: 21.4 s
  Bas: 0%
  Eos: 1%
  Fbg: 227 mg/dL
  Hb: 15 g/dL
  Ht: 42.7%
  Lym: 84%
  MCH: 19.8 pg
  MCHC: 35%
  MCV: 56.4 fL
  Mono: 1.6%
  Neu: 12.4%
  PT: 12.4 s
  Plat: 107.4 x10_4/uL
  RBC: 757.4 x10_4/ul
  Ret: 2.4%
  WBC: 107.5 x10_2/uL
  KIDNEY_L: 1.5 g
  KIDNEY_R: 1.5 g
  KIDNEY_TOTAL: 2.9 g
  LIVER: 17.7 g
  A/G: 1.3
  ALP: 551.8 IU/L
  ALT: 32.8 IU/L
  AST: 54.8 IU/L
  BUN: 16.6 mg/dL
  CRE: 0.5 mg/dL
  Ca: 10.4 mg/dL
  Cl: 102.4 meq/L
  DBIL: 0.1 mg/dL
  GLC: 218 mg/dL
  IP: 6.5 mg/dL
  K: 3.6 meq/L
  LDH: 125 IU/L
  Na: 140 meq/L
  PL: 162.4 mg/dL
  RALB: 3.4 g/dL
  TBIL: 0.2 mg/dL
  TC: 78.4 mg/dL
  TG: 139.2 mg/dL
  TP: 6.1 g/dL
  gamma-GTP: 1.2 IU/L
[5]
  TERMINAL_BW: 245.3 g
  APTT: 18 s
  Bas: 0%
  Eos: 1%
  Fbg: 213.8 mg/dL
  Hb: 13.2 g/dL
  Ht: 37.5%
  Lym: 79.8%
  MCH: 22.4 pg
  MCHC: 35.3%
  MCV: 63.3 fL
  Mono: 2.6%
  Neu: 15.2%
  PT: 12.5 s
  Plat: 122.9 x10_4/uL
  RBC: 592.2 x10_4/ul
  Ret: 6.6%
  WBC: 108.7 x10_2/uL
  KIDNEY_L: 1.1 g
  KIDNEY_R: 1 g
  KIDNEY_TOTAL: 2.1 g
  LIVER: 11.5 g
  A/G: 1.7
  ALP: 964.4 IU/L
  ALT: 33.2 IU/L
  AST: 68 IU/L
  BUN: 13.8 mg/dL
  CRE: 0.4 mg/dL
  Ca: 10.6 mg/dL
  Cl: 102.4 meq/L
  DBIL: 0.096 mg/dL
  GLC: 212.6 mg/dL
  IP: 7.2 mg/dL
  K: 3.9 meq/L
  LDH: 200.2 IU/L
  Na: 140 meq/L
  PL: 134.4 mg/dL
  RALB: 3.4 g/dL
  TBIL: 0.1 mg/dL
  TC: 65.6 mg/dL
  TG: 99.8 mg/dL
  TP: 5.5 g/dL
  gamma-GTP: 1 IU/L
[6]
  TERMINAL_BW: 276.7 g
  APTT: 20.1 s
  Bas: 0%
  Eos: 1%
  Fbg: 228.8 mg/dL
  Hb: 13.9 g/dL
  Ht: 39.5%
  Lym: 79.2%
  MCH: 21.7 pg
  MCHC: 35.2%
  MCV: 61.9 fL
  Mono: 3%
  Neu: 16.4%
  PT: 12.6 s
  Plat: 124.7 x10_4/uL
  RBC: 639.4 x10_4/ul
  Ret: 6%
  WBC: 123.1 x10_2/uL
  KIDNEY_L: 1.1 g
  KIDNEY_R: 1.1 g
  KIDNEY_TOTAL: 2.3 g
  LIVER: 13.3 g
  A/G: 1.6
  ALP: 916.8 IU/L
  ALT: 33.4 IU/L
  AST: 62.4 IU/L
  BUN: 15.8 mg/dL
  CRE: 0.4 mg/dL
  Ca: 11 mg/dL
  Cl: 100.6 meq/L
  DBIL: 0.1 mg/dL
  GLC: 205 mg/dL
  IP: 7.6 mg/dL
  K: 4.3 meq/L
  LDH: 201.2 IU/L
  Na: 140 meq/L
  PL: 156.8 mg/dL
  RALB: 3.5 g/dL
  TBIL: 0.2 mg/dL
  TC: 74.4 mg/dL
  TG: 142.4 mg/dL
  TP: 5.7 g/dL
  gamma-GTP: 1 IU/L
[7]
  TERMINAL_BW: 338.3 g
  APTT: 19.8 s
  Bas: 0%
  Eos: 1%
  Fbg: 223 mg/dL
  Hb: 14.3 g/dL
  Ht: 41.2%
  Lym: 80.6%
  MCH: 21 pg
  MCHC: 34.8%
  MCV: 60.3 fL
  Mono: 2.2%
  Neu: 15%
  PT: 12.2 s
  Plat: 114.6 x10_4/uL
  RBC: 683 x10_4/ul
  Ret: 4.3%
  WBC: 119.2 x10_2/uL
  KIDNEY_L: 1.3 g
  KIDNEY_R: 1.3 g
  KIDNEY_TOTAL: 2.5 g
  LIVER: 15.1 g
  A/G: 1.5
  ALP: 781 IU/L
  ALT: 32.6 IU/L
  AST: 60.4 IU/L
  BUN: 17.6 mg/dL
  CRE: 0.5 mg/dL
  Ca: 10.7 mg/dL
  Cl: 102.6 meq/L
  DBIL: 0.1 mg/dL
  GLC: 208 mg/dL
  IP: 6.5 mg/dL
  K: 3.7 meq/L
  LDH: 209.8 IU/L
  Na: 140.4 meq/L
  PL: 160.6 mg/dL
  RALB: 3.6 g/dL
  TBIL: 0.2 mg/dL
  TC: 75 mg/dL
  TG: 149.6 mg/dL
  TP: 6.1 g/dL
  gamma-GTP: 1 IU/L
[8]
  TERMINAL_BW: 422 g
  APTT: 19.9 s
  Bas: 0%
  Eos: 1%
  Fbg: 220.4 mg/dL
  Hb: 15 g/dL
  Ht: 43.1%
  Lym: 83.8%
  MCH: 19.8 pg
  MCHC: 34.8%
  MCV: 56.8 fL
  Mono: 2.2%
  Neu: 12.2%
  PT: 12.7 s
  Plat: 99.8 x10_4/uL
  RBC: 759 x10_4/ul
  Ret: 2.6%
  WBC: 140.7 x10_2/uL
  KIDNEY_L: 1.5 g
  KIDNEY_R: 1.5 g
  KIDNEY_TOTAL: 2.9 g
  LIVER: 17.2 g
  A/G: 1.3
  ALP: 736.4 IU/L
  ALT: 32.6 IU/L
  AST: 59.2 IU/L
  BUN: 16.6 mg/dL
  CRE: 0.5 mg/dL
  Ca: 10.4 mg/dL
  Cl: 102.4 meq/L
  DBIL: 0.098 mg/dL
  GLC: 224 mg/dL
  IP: 6.3 mg/dL
  K: 3.5 meq/L
  LDH: 137 IU/L
  Na: 139.6 meq/L
  PL: 140.8 mg/dL
  RALB: 3.4 g/dL
  TBIL: 0.2 mg/dL
  TC: 66.2 mg/dL
  TG: 104.6 mg/dL
  TP: 5.9 g/dL
  gamma-GTP: 1 IU/L
